Data from patent US4007201A, “Novel pyrazole derivatives” (Kyorin Pharmaceutical Co. Ltd., priority 1975, dated 1977).

Legend:
[1] = test system: blood glucose level in fasted and glucose-loaded rats; test: Relationships between doses and reducing activity of the compound 4; assay type: in vivo, male Sprague Dawley rats; details: for Blood glucose: ± SE
Description: (§1) The animals used for the pharmacological studies were male Sprague Dawley rats exept otherwise noted. 1. Hypoglycemic activity in non-diabetic rats (screening test)
(§2) The rats were fasted for 16 - 18 hours prior to the experiment and those weighing 140 - 160g were used. Glucose solution (100 mg/0.5ml/150g body weight) was subcutaneously injected on the fasted rats. Each of the present compounds was suspended in 1% carboxymethyl cellulose (CMC), and about 0.5 ml of the suspension (corresponding to 100 mg/kg of the compound per body weight) was orally administered. Blood samples were taken from the tail vein of the rats at 2 and 5 hours after the administration, and the blood glucose level in each sample (0.1 ml) was determined by the micro method of Momose as described in SOGO-RINSHO 11, 120 (1962).
The compound 4 and tolbutamide were orally administered to the fasted and glucose-loaded rats in various doses.

[2] = test system: serum FFA level in non-diabetic rats; test: Serum free fatty acids (FFA) level in non-diabetic rats at 90 minutes; assay type: in vivo, male Sprague Dawley rats; details: 100 mg/kg oral
Description: (§3) These new compounds of the present invention are very useful as anti-diabetic agents, which is supported from the following pharmacological studies. The animals used for the pharmacological studies were male Sprague Dawley rats exept otherwise noted. 1. Hypoglycemic activity in non-diabetic rats (screening test)
The rats were fasted for 16-18 hours, and those weighing 130-160g were used. The compound 4 suspended in 1% CMC was orally administered to the fasted rats, and at 90 minutes after administration blood was drawn from the […] vena cava under anesthesia with sodium pentobarbital. The blood glucose level was determined by the method of Momose, and the serum FFA level was determined by the method of Itaya and Ui as described in J. Lipid Res., 6, 16 (1965), respectively.

[3] = test system: blood glucose level in alloxan diabetic rats; test: Hypoglycemic effect in alloxan diabetic rats; assay type: in vivo, male Sprague Dawley rats; details: for Hypoglycemic effect in alloxan diabetic rats (in words): oral
Description: as §3
(§4) Alloxan diabetic rats were obtained as follows. Namely, 2.5% fresh solution of alloxan (50mg/kg) was injected into the tail vein of male rats, and the rats were daily injected with insulin (1-4 units/day) from the 7th day after the administration of alloxan. The alloxan diabetic rats which were survived for more than 2 months with daily injection of insulin were used. The alloxan diabetic rats were fasted for 24 hours after the last treatment with insulin, and then the compound of the present invention was orally administered. The blood glucose levels were determined by the micro method of Momose before and 2, 4 and 6 hours after the administration.

[4] = test system: elevated blood glucose levels in adrenalectomized rats induced by adrenalin; test: Adrenalin-induced hyperglycemia in adrenalectomized rats; assay type: in vivo, male Sprague Dawley rats; details: 4 mg/kg; adrenalin (50 mg/kg) subcutaneous
[5] = test system: serum cholesterol level in alloxan diabetic rats; test: Serum cholesterol level in alloxan diabetic rats, 10 consecutive days; assay type: in vivo, male Sprague Dawley rats
Description: as §3, §4
(§5) The alloxan diabetic rats which were prepared and then preserved for 6 months with insulin as described in the previous experiment were used.

[6] = test system: blood glucose level in fasted and glucose-loaded rats; test: Duration of the action of the compound 4 (fasted, glucose-loaded rats); assay type: in vivo, male Sprague Dawley rats; details: for Blood glucose before administration: 50 mg/kg oral group, before administration (baseline); for Blood glucose before administration / Blood glucose 2 hours / Blood glucose 4 hours / Blood glucose 6 hours: ± SE
Description: as §3, §2
In order to reconfirm the effectiveness of the compounds of the present invention, more detailed examinations were performed on the most representative compound (compound of the Example 4 abbreviated hereinafter as the compound 4). The compound 4 suspended in 1% CMC was orally administered in a dose of 50 mg/kg to the fasted and glucose-loaded rats according to the preceding screening test, and the blood glucose levels at 2, 4 and 6 hours after the administration were determined by the method of Momose.

[7] = test system: elevated blood glucose levels in adrenalectomized rats induced by hydrocortisone acetate; test: Hydrocortisone acetate-induced hyperglycemia in adrenalectomized rats; assay type: in vivo, male Sprague Dawley rats; details: 4 mg/kg; hydrocortisone acetate intravenous
[8] = Acute toxicity in rats; assay type: in vivo
Source text: (§6) Thus, the toxicity of the present compound was considered to be extremely low.

[9] = Acute toxicity in mice; assay type: in vivo
Source text: as §6

[10] = test system: serum FFA level in alloxan diabetic rats; test: Serum FFA level in alloxan diabetic rats loaded with much quantity of glucose; assay type: in vivo, male Sprague Dawley rats; details: compound 4 12.5 and 100 mg/kg, phenformin 100mg/kg; oral with 2g/kg of glucose; 3 hours
Description: as §3
Respective dose of the compound 4 (12.5 and 100 mg/kg) together with 2g/kg of glucose was orally administered to the alloxan diabetic rats.

[11] = test system: serum triglyceride level in alloxan diabetic rats; test: Serum triglyceride level in alloxan diabetic rats, 10 consecutive days; assay type: in vivo, male Sprague Dawley rats
Description: as §1, §4, §5

[12] = test system: serum FFA level in alloxan diabetic rats; test: Serum FFA level in alloxan diabetic rats, 10 consecutive days; assay type: in vivo, male Sprague Dawley rats
Description: as §3, §4, §5

[13] = test system: serum FFA level in alloxan diabetic rats; test: Serum FFA level in alloxan diabetic rats, oral administration; assay type: in vivo, male Sprague Dawley rats; details: compound 4 at 12.5 and 100 mg/kg, 1.5 and 5 hours
Description: as §3, §4, §5

[14] = 100 mg/kg, 10 consecutive days, control = 100
[15] = maximum dose technically possible

## Cc1cc(C)n(C(=O)CNS(=O)(=O)c2ccc(Cl)cc2)n1 [Example 4, 1-(N-p-chlorobenzenesulfonyl-glycyl)-3,5-dimethylpyrazole]
[1]; 0.56 mg/kg oral
  Reduction % from control: 14.9%
  Blood glucose: 77.5 ± 6.6 mg%
[1]; 1.14 mg/kg oral
  Reduction % from control: 19.4%
  Reduction of the blood glucose level (in words): significantly reduced the blood glucose level even at the dose of 1.14 mg/kg
  Blood glucose: 73.4 ± 6.4 mg%
[1]; 3.38 mg/kg oral
  Reduction % from control: 20.6%
  Blood glucose: 72.3 ± 4.1 mg%
[1]; 6.75 mg/kg oral
  Reduction % from control: 24.0%
  Blood glucose: 69.2 ± 7.8 mg%
[1]; 12.5 mg/kg oral
  Reduction % from control: 34.8%
  Blood glucose: 59.4 ± 4.0 mg%
[1]; 25 mg/kg oral
  Reduction % from control: 45.4%
  Blood glucose: 49.7 ± 2.8 mg%
[1]; 50 mg/kg oral
  Reduction % from control: 40.5%
  Blood glucose: 54.2 ± 2.9 mg%
[2]
  Effect on serum FFA level (in words): more effective than tolbutamide in lowering the serum FFA level
  Serum FFA level: 17.4 ± 5.8 μ Eq/dl
[3]; 100 mg/kg oral group, before administration (baseline), ± SE
  Blood glucose before administration: 352.1 ± 31.6 mg%
[3]; 100 mg/kg oral, 2 hours, ± SE
  Blood glucose 2 hours: 267.6 ± 34.3 mg%
[3]; 100 mg/kg oral, 4 hours, ± SE
  Blood glucose 4 hours: 172.4 ± 35.1 mg%
[3]; 100 mg/kg oral, 6 hours, ± SE
  Blood glucose 6 hours: 97.8 ± 13.4 mg%
[3]
  Hypoglycemic effect in alloxan diabetic rats (in words): could be observed, and it lasted so longer than that of phenformin (phenethylbiguanide) as to be potent even at 6 hours after the administration
[4]
  Hypoglycemic activity against hyperglycemia induced by adrenalin: particularly effective against the hyperglycemia induced by adrenalin
[5]; 100 mg/kg, 10 consecutive days
  Cholesterol: 46.1 ± 2.9 mg/dl serum
[5]; [14]
  Cholesterol, relative to control (100): 77.6
[5]; oral, 10 days
  Effect on serum cholesterol level, 10 days (in words): significantly reduced
[6]
  Blood glucose before administration: 85.6 ± 3.2 mg%
[6]; 50 mg/kg oral, 2, 4 and 6 hours
  Durability of hypoglycemic effect: more durable than that of tolbutamide
[6]; 50 mg/kg oral
  Blood glucose 2 hours: 50.9 ± 1.2 mg%
  Blood glucose 4 hours: 63.1 ± 3.0 mg%
  Blood glucose 6 hours: 74.0 ± 1.6 mg%
[7]
  Hypoglycemic activity on elevated blood glucose induced by hydrocortisone acetate: exerted its hypoglycemic activity on elevated blood glucose levels in adrenalectomized rats
[8]; [15]
  Maximum oral dose without death: about 17 g/kg
[8]; oral, up to about 17g/kg
  Mortality: no mice or rats suffered death
[9]; [15]
  Maximum oral dose without death: about 17 g/kg
[9]; oral, up to about 17g/kg
  Mortality: no mice or rats suffered death
[10]
  Effect on serum FFA level (in words): significantly lowered at 3 hours after the administration (p<0.005)
[11]; 100 mg/kg, 10 consecutive days
  Triglyceride: 22.1 ± 4.6 mg/dl serum
[11]; [14]
  Triglyceride, relative to control (100): 40.1
[11]; oral, 10 days
  Effect on serum triglyceride level, 10 days (in words): significantly reduced
[12]; 100 mg/kg, 10 consecutive days
  FFA: 28.5 ± 7.6 μ Eq/dl serum
[12]; [14]
  FFA, relative to control (100): 44.0
[12]; oral, 10 days
  Effect on serum FFA level, 10 days (in words): significantly reduced
[13]
  Effect on serum FFA level in alloxan diabetic rats (in words): drastically decreased within 1.5 hours, and it was still more lowered even at 5 hours later

## CCCCNC(=O)NS(=O)(=O)c1ccc(C)cc1 [Tolbutamide, reference compound]
[1]; 6.75 mg/kg oral
  Reduction % from control: 3.8%
  Blood glucose: 87.6 ± 6.5 mg%
[1]; 12.5 mg/kg oral
  Reduction % from control: -1.4%
  Blood glucose: 92.4 ± 3.5 mg%
[1]; 25 mg/kg oral
  Reduction % from control: 19.3%
  Blood glucose: 73.5 ± 5.0 mg%
[1]; 50 mg/kg oral
  Reduction % from control: 48.0%
  Blood glucose: 47.4 ± 3.4 mg%
[1]; low doses, oral
  Potency at low doses (in words): not potent at low doses
[2]
  Serum FFA level: 30.8 ± 15.6 μ Eq/dl
[3]
  Hypoglycemic effect in alloxan diabetic rats (in words): could not exert its hypoglycemic effect in the alloxan diabetic rats
[6]
  Blood glucose before administration: 86.2 ± 2.1 mg%
[6]; 50 mg/kg oral
  Blood glucose 2 hours: 44.7 ± 5.0 mg%
  Blood glucose 4 hours: 60.4 ± 5.4 mg%
  Blood glucose 6 hours: 80.7 ± 5.4 mg%
[13]
  Effect on serum FFA level in alloxan diabetic rats (in words): no suppressive effect on the serum FFA level
